Test results from ChEMBL document CHEMBL1134153, “Novel bicyclic lactam inhibitors of thrombin: potency and selectivity optimization through P1 residues” (Bioorg Med Chem Lett, 2001).

Columns and labels:
Prothrombin = Prothrombin (Rattus norvegicus, UniProt P18292); assay: In vitro ability to inhibit the amidolytic activity of thrombin
Rattus norvegicus [1] = assay: Tested for in vivo activated partial thromboplastin time in rat arterial thrombosis model; assay type: functional
Rattus norvegicus [2] = assay: Tested for in vivo thrombin time in rat arterial thrombosis model; assay type: functional
Rattus norvegicus [3] = assay: Tested for in vivo mean occlusion time in rat arterial thrombosis model; assay type: functional

Structure (SMILES)	Ki (Prothrombin) [µM]	APTT (Rattus norvegicus [1]) [min]	TT (Rattus norvegicus [2]) [min]	MOT (Rattus norvegicus [3]) [min]
Cc1cc(C(=N)N)ccc1CNC(=O)[C@@H]1CC[C@H]2CN(S(=O)(=O)Cc3ccccc3)CC(=O)N21	0.007	0.9	6.55	46
N/C(=N/O)c1ccc(CNC(=O)[C@@H]2CC[C@H]3CN(S(=O)(=O)Cc4ccccc4)CC(=O)N32)cc1	> 10	–	–	–
O=C(NC[C@H]1CC[C@H](NO)CC1)[C@@H]1CC[C@H]2CN(S(=O)(=O)Cc3ccccc3)CC(=O)N21	1.1	–	–	–
N/C(=N\O)N1CCC(CNC(=O)[C@@H]2CC[C@H]3CN(S(=O)(=O)Cc4ccccc4)CC(=O)N32)CC1	–	0.633	3.85	48
O=C(NCc1ccc2nc[nH]c2c1)[C@@H]1CC[C@H]2CN(S(=O)(=O)Cc3ccccc3)CC(=O)N21	1	–	–	–

More lines, main results first:

Ki (Prothrombin) [µM]	Structure (SMILES)	APTT (Rattus norvegicus [1]) [min]	TT (Rattus norvegicus [2]) [min]	MOT (Rattus norvegicus [3]) [min]
0.1	N[C@H]1CC[C@H](CNC(=O)C2CC[C@H]3CN(S(=O)(=O)Cc4ccccc4)CC(=O)N23)CC1 (some centres undefined)	–	–	–
0.9	N=C(N)NCCCCNC(=O)C1CC[C@H]2CN(C(=O)CCc3ccccc3)CC(=O)N12 (some centres undefined)	–	–	–
0.078	N=C(N)N1CCC(CNC(=O)[C@@H]2CC[C@H]3CN(S(=O)(=O)Cc4ccccc4)CC(=O)N32)CC1	–	–	–
0.008	N=C(N)c1ccc(CNC(=O)[C@@H]2CC[C@H]3CN(S(=O)(=O)Cc4ccccc4)CC(=O)N32)cc1	0.967	7.58	>60
0.18	N=C(N)N1CCC(CNC(=O)[C@@H]2CC[C@H]3CN(C(=O)CCc4ccccc4)CC(=O)N32)CC1	–	–	–
0.0006	N=C(N)NCCC[C@H](NC(=O)[C@@H]1CC[C@H]2CN(C(=O)CCc3ccccc3)CC(=O)N21)C(=O)c1nccs1	–	–	–
